# Like-named read-outs stand apart in the source and are kept apart here.
# Legend:
# [1] = tested on: differentiated human jejunal enteroids
# Source text: (§1) Mass spectrometry was used to measure the concentration of compound and metabolites in the media following exposure in each MPS organ module.
# (§2) Human jejunal enteroid cultures were isolated from two separate donors as described[59] and maintained in culture as spherical enteroids in Matrigel (Becton Dickinson, Franklin Lakes, NJ) until dissociated and plated as monolayer cultures on collagen IV coated polyethylene terephthalate (PET) Transwell® membrane inserts (Corning, Inc., Corning, NY) (Fig. 1A)[55][59][60][61]. The apical chamber received 100 μl of a 5 × 10^6/mL of the suspended cells in proliferation media. The basolateral chamber received 600 μl of proliferation media. […] Jejunal barrier monolayer with intact tight junctions were established by TEER testing and the restricted diffusion of 4 kD FITC-dextran polymers over the 24 h period (Supplemental Information Supplemental Table S8).
# (§3) TMA was prepared at a concentration 3 mM by dissolving the neat compound directly into intestinal apical media. […] The dried residue was solubilized in apical media and mixed by sonication in a water bath for 30 s.
# (§4) All treatments were conducted in duplicate modules in each laboratory. […] The apical and basolateral media were collected in glass vials and frozen at −80 °C for MS analysis and transported to UPitt for testing in the SQL-SAL module.
# [2] = tested on: static SQL-SAL liver model; test: Static 4-cell SQL-SAL liver in 96-well microplates (vitamin D3); format: in vitro ADME, human; settings: vitamin D3 experiment; 96-well 4-cell liver module, 72 h, media pooled
# Procedure: Media without dexamethasone was used to avoid downstream toxicity to the human neurons in the NVU. […]
# The intestinal/liver-conditioned media efflux was collected and samples were tested by MS or transported on dry ice for testing in the kidney module, or the BBB/NVU module.
# Dexamethasone, normally used to maintain hepatocyte differentiation, was removed from the liver media for functional coupling to avoid downstream toxicity to the human neurons in the NVU. […] Briefly, cryopreserved human hepatocytes were seeded into collagen type 1 coated 96-well plates at 26,000 hepatocytes/well and allowed to attach overnight in hepatocyte plating media (HPM). The HPM was decanted and 1.25x10^5 Ea.Hy.926 endothelial cells and 8 X10^4 differentiated U937 immune cells in MEM media supplemented with 10% FBS and L-Glutamine were added. After 2 h the media was decanted and 40 µL of a slurry of 1.5 mg/mL gelling collagen type 1 in Williams E media with 4 X 10^4 LX-2 stellate cells was added.
# [3] = tested on: differentiated human jejunal enteroids; test: Intestine module: jejunal enteroid Transwell transport and metabolism; settings: for Concentration in micelle preparation: synthetic micelles containing 100 μM vitamin D3
# Source text: as §1, §2, §3, §4
# [4] = tested on: proximal tubule kidney (PTK) module; test: Proximal tubule kidney (PTK) module, vitamin D3 metabolites
# Procedure: Briefly, a single 100 μm diameter lumen was pre-cast in gelling collagen inside the microfluidic device and then seeded with passage 5 kidney PTEC to 100% confluence according to established methods[52]. The kidney proximal tubule modules were then perfused (30 μL/h) for 8 days with 100% kidney proximal tubule media prior to perfusion with mixed media solutions.
# All media samples were stored in amber glass vials at −80 °C until LC-MS/MS analysis.
# [5] = tested on: blood-brain barrier/neurovascular unit (BBB/NVU); test: BBB/NVU module penetration; settings: for Penetration through blood-brain barrier (MPS): BBB/NVU module, TMAO 12 h, others 24 h
# [6] = tested on: Kidney MPS Organ Module (PTK); test: Vitamin D binding protein as carrier in PTK module; settings: 1 μM 25-(OH) VD3
# [7] = cited from earlier work
# Liver MPS Organ Module = test: Effect of vitamin D binding protein on recovery and metabolism in liver module; format: in vitro ADME, human; settings: for 25-(OH) VD3 formation as % of in vivo rate / 25-(OH) VD3 formation: 0-24 h; for 25-(OH) VD3 formation: 7 μM VitD3
# Procedure: Media without dexamethasone was used to avoid downstream toxicity to the human neurons in the NVU. […] Media samples were collected after 24 h and 48 h incubations.
# Samples from the treatment conditions were collected after 24-h and 48-h incubations and stored in amber glass vials at -80°C for LC-MS/MS analysis.
# [8] = tested on: vascularized proximal tubule kidney (VPTK) module; test: Vascularized proximal tubule kidney (VPTK) module secretion; settings: for Excreted into proximal tubule lumen, MPS: Table 2, MPS model
# Procedure: as §1
# To form the vascularized kidney model, 2 lumens were pre-cast side-by-side in gelling collagen inside the Nortis microfluidic device. Human proximal tubule epithelial cells (PTEC) were seeded on the wall of one lumen channel at an approximate density of 20 × 10^6 cells/mL and were allowed to attach for 1 h. Culture media flow at 30 μl/h was then initiated and maintained for 5 days in order to establish a 100% confluent tubule expressing tight junctions. On day 6, the flow of culture media to the PTEC channel was stopped to allow the second channel seeding at 20 × 10^6 human umbilical vein endothelial cells/mL (HUVEC) and allowed to attach for 30–60 minutes. Parallel media flow of defined DMEM/F-12 (see Supplement) with 2% FBS for the PTEC channel and EGM-2 media for HUVEC channel were initiated at a rate of 30 μl/h. The VPTK devices were allowed to stabilize overnight before conducting test compound treatment.
# The media for the PTEC channel remained unchanged. Media perfusion was initiated simultaneously for both channels at a flow rate of 60 μl/h. The effluents from both channels were collected for 6 h. Due to the insensitivity of the TMAO analyte by mass spectrometry, an additional TMAO experiment using EGM-2 media supplemented with 5 mM TMAO was conducted in the VPTK to quantitate the level of TMAO secretion.
# [9] = 100 μM vitamin D3 micelles apical, 24 h
# [10] = 0-48 h, 50% liver-conditioned, N=2
# [11] = 3 mM TMA added to apical compartment, 0-24 h
# [12] = kidney perfused at 3.75 X 10^5 ng/ml TMAO spiked media, 0-6 h
# [13] = kidney perfused with liver conditioned media, 0-6 h
# [14] = TMA experiment, liver-conditioned media, Brain (12 h)
# [15] = liver-conditioned media, 6 h perfusion
# [16] = terfenadine experiment, liver-conditioned media, 0-6 h
smiles,measurement,setting,value
"C=C1/C(=C\C=C2/CCC[C@]3(C)[C@@H]([C@H](C)CCCC(C)(C)O)CC[C@@H]23)C[C@@H](O)C[C@@H]1O [1α,25-(OH)2 Vitamin D3, 1α,25-(OH)2 vitamin D3]",Concentration in micelle preparation,[1],< LOD^2 < LOD < LOD
same,Concentration in liver efflux media,[2],0.0064 ng/mL
"C=C1CC[C@H](O)[C@H](O)/C1=C/C=C1\CCC[C@]2(C)[C@@H]([C@H](C)CCCC(C)(C)O)CC[C@@H]12 [4β,25-(OH)2 Vitamin D3, 4β,25-(OH)2 vitamin D3]",Concentration in liver efflux media,[2],0.047 ng/mL
same,Concentration in intestine apical media,[3]; [9],< LOD^2 < LOD < LOD
same,Concentration in intestine basolateral media,[3]; [9],< LOD^2 < LOD < LOD
same,Concentration in micelle preparation,[3],< LOD^2 < LOD < LOD
same,Concentration in kidney efflux media,[4]; [10],0.0033 ng/mL
same,Concentration in kidney efflux media,"[4]; 0-48 h, 80% liver-conditioned",0.0064 ng/mL
same,Concentration in kidney efflux media,"[4]; 0-120 h, 50% liver-conditioned",0.0076 ng/mL
same,Concentration in kidney efflux media,"[4]; 0-120 h, 80% liver-conditioned",0.014 ng/mL
same,Concentration in brain neuronal efflux,"[5]; vitamin D3 experiment, 24 h",LOD
same,Concentration in brain vascular efflux,"[5]; vitamin D3 experiment, 24 h",0.0081 ± 0.0029 ng/mL
"C=C1CCC(O)C/C1=C\C=C1\CCCC2(C)C1CCC2C(C)CCC(O)C(C)(C)O (centres unmarked) [24,25-(OH)2 Vitamin D3, 24,25-(OH)2 vitamin D3]",Metabolite formation in kidney efflux,"[6]; 48-72 h, media + 2% FBS",6.80 ± 1.6 pmol/day/ 10^6 Proximal Tubule Cells
same,Concentration in liver efflux media,[2],0.25 ng/mL
same,Concentration in intestine apical media,[3]; [9],< LOD^2 < LOD < LOD
same,Concentration in intestine basolateral media,[3]; [9],< LOD^2 < LOD < LOD
same,Concentration in micelle preparation,[3],< LOD^2 < LOD < LOD
same,Concentration in kidney efflux media,[4]; [10],0.082 ng/mL
same,Concentration in kidney efflux media,"[4]; 0-48 h, 80% liver-conditioned",0.12 ng/mL
same,Concentration in kidney efflux media,"[4]; 0-120 h, 50% liver-conditioned",0.11 ng/mL
same,Concentration in kidney efflux media,"[4]; 0-120 h, 80% liver-conditioned",0.16 ng/mL
same,Concentration in brain neuronal efflux,"[5]; vitamin D3 experiment, 24 h",LOQ
same,Concentration in brain vascular efflux,"[5]; vitamin D3 experiment, 24 h",0.079 ± 0.015 ng/mL
"C=C1CC[C@H](O)C/C1=C/C=C1\CCC[C@]2(C)[C@@H]([C@H](C)CCCC(C)(C)O)CC[C@@H]12 [25-(OH) Vitamin D3, 25-(OH) vitamin D3]",25-(OH) VD3 recovery,"[6]; 48-72 h, Renal Tubular Epithelial Media + 3 μM Vitamin D Binding Protein",100%
same,25-(OH) VD3 recovery,"[6]; 48-72 h, Renal Tubular Epithelial Media + 2% FBS",8%
same,Recovered from syringes and tubing leading up to MPS module,[6]; media + 2% FBS,16%
same,"Kidney metabolism, Clinical","[7]; Table 2, clinical","25(OH)VD3 → 1α,25(OH)2VD3 & 24,25(OH)2VD3"
same,"Penetration through blood-brain barrier, Clinical","[7]; Table 2, clinical",VD3 & 25(OH)VD3 Penetration
same,Plasma 25-(OH) vitamin D3 transported by DBP,[7]; in humans,85–90%
same,Concentration in liver efflux media,[2],3.0 ng/mL
same,Concentration in intestine apical media,[3]; [9],< LOQ^1 < LOQ < LOQ
same,Concentration in intestine basolateral media,[3]; [9],< LOQ^1 < LOQ < LOQ
same,Concentration in micelle preparation,[3],< LOQ^1 < LOQ < LOQ
same,Concentration in kidney efflux media,[4]; [10],0.12 ng/mL
same,Concentration in kidney efflux media,"[4]; 0-48 h, 80% liver-conditioned",0.23 ng/mL
same,Concentration in kidney efflux media,"[4]; 0-120 h, 50% liver-conditioned",0.29 ng/mL
same,Concentration in kidney efflux media,"[4]; 0-120 h, 80% liver-conditioned",0.48 ng/mL
same,25-(OH) vitamin D3 perfused into the kidney that was unrecoverable,"[4]; initial four-organ functional study, no DBP",90%
same,25-(OH) VD3 formation as % of in vivo rate,Liver MPS Organ Module; 3 μM DBP,4.9 % of in vivo rate
same,25-(OH) VD3 formation as % of in vivo rate,Liver MPS Organ Module; no DBP,2.7 % of in vivo rate
same,25-(OH) VD3 formation,Liver MPS Organ Module; 3 μM DBP,12.63 pmol/day/10^6 Hepatocytes
same,25-(OH) VD3 formation,Liver MPS Organ Module; no DBP,7.00 pmol/day/10^6 Hepatocytes
same,Improvement of formation and recovery of the metabolite with DBP,Liver MPS Organ Module; DBP:vitamin D3 3:1 versus no DBP,2–3 fold
same,Penetration through blood-brain barrier (MPS),[5]; liver-conditioned media,approximately 6%
same,Penetration through blood-brain barrier (MPS),"[5]; liver-conditioned media, listed as 25(OH) VD3",6%
same,Concentration in brain neuronal efflux,"[5]; vitamin D3 experiment, 24 h",0.051 ± 0.022 ng/mL
same,Concentration in brain vascular efflux,"[5]; vitamin D3 experiment, 24 h",0.82 ± 0.15 ng/mL
"CC(C)(C(=O)O)c1ccc(C(O)CCCN2CCC(C(O)(c3ccccc3)c3ccccc3)CC2)cc1 (centres unmarked) [Fexofenadine, fexofenadine, reference compound]","Excreted into proximal tubule lumen, Clinical","[7]; Table 2, clinical",11% Fex Excreted
same,"Excreted into proximal tubule lumen, MPS",[8],~ 1% Fex Excreted
same,Share of total fexofenadine found in lumen media,"[8]; liver-conditioned media, 6 h",~1%
"CN(C)C [TMA, trimethylamine]","Intestine fate, Clinical","[7]; Table 2, clinical",Uptake & Transport
same,"Liver metabolism, Clinical","[7]; Table 2, clinical",TMA → TMAO
same,"TMA Clearance (liver), Clinical","[7]; Table 2, clinical",< 5%
same,Share of starting TMA concentration found in basolateral media,"[3]; 316 μg/mL (3 mM) apical, 24 h",6%
same,Concentration in intestine basolateral media,[3]; [11],19100 ± 2179 ng/mL
same,Concentration in intestine basolateral media,"[3]; TMA hydrochloride 316 μg/mL (3 mM) apical, 24 h",19100 ± 2200 ng/mL
same,"Intestine fate, MPS","[3]; Table 2, MPS model",Uptake & Transport
same,Concentration in kidney plasma efflux,[8]; [12],< LOQ < LOQ
same,Concentration in kidney proximal tubule lumen,[8]; [12],< LOQ < LOQ
same,Concentration in kidney plasma efflux,[8]; [13],< LOQ <LOQ
same,Concentration in kidney proximal tubule lumen,[8]; [13],< LOQ <LOQ
same,Concentration in brain neuronal efflux,[5]; [14],< LOQ < LOQ
same,Concentration in brain vascular efflux,[5]; [14],< LOQ < LOQ
"C[N+](C)(C)[O-] [TMAO, trimethylamine-N-oxide]","Excreted into proximal tubule lumen, Clinical","[7]; Table 2, clinical",> 95% TMAO Excreted
same,Concentration in intestine apical media,[3]; [11],< LOQ^1 < LOQ
same,Concentration in intestine basolateral media,[3]; [11],< LOQ^1 < LOQ
same,"Excreted into proximal tubule lumen, MPS",[8],~46% TMAO Excreted
same,TMAO secreted into the kidney lumen,"[8]; independent experiment, media with 375 μg/mL TMAO",46%
same,Concentration in kidney plasma efflux,[8]; [13],21720 ± 6967 ng/mL
same,Concentration in kidney proximal tubule lumen,[8]; [13],450 ± 290 ng/mL
same,Share of TMAO found in lumenal media,[8]; [15],5%
same,Share of TMAO found in vascular media,[8]; [15],95%
same,Concentration in brain neuronal efflux,[5]; [14],1800 ± 100 ng/mL
same,Concentration in brain vascular efflux,[5]; [14],4600 ± 200 ng/mL
same,Concentration in BBB/NVU neuronal efflux,"[5]; TMA experiment, 12 h perfusion",1800 ± 100 ng/mL
same,Concentration in BBB/NVU vascular efflux,"[5]; TMA experiment, 12 h perfusion",4600 ± 200 ng/mL
"CC(C)(C)c1ccc(C(O)CCCN2CCC(C(O)(c3ccccc3)c3ccccc3)CC2)cc1 (centres unmarked) [Terfenadine, terfenadine, reference compound]","Bio T (liver), Clinical","[7]; Table 2, clinical",< 1%
same,"Intestine fate, Clinical","[7]; Table 2, clinical",Ter → Fex
same,Concentration in kidney plasma (vascular) efflux,[8]; [16],< LOQ^2 < LOQ
same,Concentration in kidney proximal tubule lumen,[8]; [16],< LOQ^2 < LOQ
